pIC50: −log10 of the molar value. Positions of bridges follow the written chain, without caps; N, C: chain ends. Residues, ends and D or L forms follow the SMILES beside them.
How the values were obtained:
[1] = test system: HUVEC; assay: Direct binding of carboxyfluorescein-labelled RGD-10 to HUVEC; set-up: species or system human; settings: synthetic carboxyfluorescein-labeled RGD-10 peptide, Fig. 1
Description: Fig. 1: Binding of carboxyfluorescein-labelled RGD-10 to HUVECs. Thin line - cells without peptide, bold line - cells incubated with CF-labelled RGD-10. Fig. 2: Titration of inhibition of RGD-10 binding by peptides RGD-10 or RGD-4C analyzed by cell ELISA. Fig. 3: Structure of lipopeptides consisting of a peptide ligand with an acetylated Nterminus, the doo spacer linked to a dipalmitoyl-glycero-succinyl-lysine anchor. Fig. 4: A) Binding of RGD10 liposomes to HUVEC or B16.F10. Liposomes containing the RGD10-LP or RGD10-LP3 lipopeptide at a conc. of 0.1 mol% (thin line), 1 mol% (normal line), or 5 mol% (bold line) were analyzed for binding to HUVECs or B16.F10 (marked with 0). Binding of liposomes lacking lipopeptides is indicated as dotted line. B.) Liposomes containing the RGD10LP3 lipopeptide at a conc. of 1 mol% were analyzed for binding to MeWo or A431 cells. Dotted line = cells alone, normal line = liposomes without lipopeptide, bold line, RGD10-LP3 liposomes. Fig. 5: Competition experiments. […] Fluorescence microscopy analysis of binding of RGD10-LP3 liposomes or liposomes lacking lipopeptide (untargeted liposomes) to HUVECs at 4°C or 37°C. […] Fig. 8: Antitumor effects of LP3-liposomes (Dox-LP3 liposomes) loaded with doxorubicin in comparison to untargeted liposomes (Dox liposomes) or free doxorubicin analyzed in a C26 murine colon carcinoma tumor model. […]

[2] = test system: B16.F10; assay: Competition of liposome binding by free competitors (B16.F10); set-up: species or system murine; settings: RGD10 LP1-containing liposomes
Text: (§1) Thus, binding to integrin-expressing cells is specifically mediated by the RGD peptide.

[3] = test system: HUVEC; assay: Competition of liposome binding by free competitors (HUVEC); set-up: species or system human
Description: Fig. 1: Binding of carboxyfluorescein-labelled RGD-10 to HUVECs. Thin line - cells without peptide, bold line - cells incubated with CF-labelled RGD-10. Fig. 2: Titration of inhibition of RGD-10 binding by peptides RGD-10 or RGD-4C analyzed by cell ELISA. Fig. 3: Structure of lipopeptides consisting of a peptide ligand with an acetylated Nterminus, the doo spacer linked to a dipalmitoyl-glycero-succinyl-lysine anchor. Fig. 4: A) Binding of RGD10 liposomes to HUVEC or B16.F10. Liposomes containing the RGD10-LP or RGD10-LP3 lipopeptide at a conc. of 0.1 mol% (thin line), 1 mol% (normal line), or 5 mol% (bold line) were analyzed for binding to HUVECs or B16.F10 (marked with 0). Binding of liposomes lacking lipopeptides is indicated as dotted line. B.) Liposomes containing the RGD10LP3 lipopeptide at a conc. of 1 mol% were analyzed for binding to MeWo or A431 cells. Dotted line = cells alone, normal line = liposomes without lipopeptide, bold line, RGD10-LP3 liposomes. Fig. 5: Competition experiments. […] Thin line = cells alone, normal line = plus peptide or 5 doo, bold line = liposomes without competitor. Fig. 6: Cell binding and internalization of RGD-10-LP3 liposomes. Fluorescence microscopy analysis of binding of RGD10-LP3 liposomes or liposomes lacking lipopeptide (untargeted liposomes) to HUVECs at 4°C or 37°C. […] Fig. 7: Pharmacokinetic analysis of liposomes containing 1 mol% LP1, 1 mol% LP3, or 0.1 mol% LP3. Fig. 8: Antitumor effects of LP3-liposomes (Dox-LP3 liposomes) loaded with doxorubicin in comparison to untargeted liposomes (Dox liposomes) or free doxorubicin analyzed in a C26 murine colon carcinoma tumor model.
as §1

[4] = test system: HDMEC; assay: Peptide binding to HDMEC; set-up: species or system human; settings: compared with RGD-4C oxidized in two steps
Text: For further analysis we selected 2C-RGD peptide RGD-10 ([…]). The RGD-10 peptide was synthesized with the sequence […], thus lacking the C-terminal aspartate residue and resulting in a neutral net charge. […] For these experiments RGD-4C was oxidized in a two-step process to obtain disulfide bonds between C1-C4 and C2-C3 described to be essential for high affinity binding (Assa-Munt, et al. (2001) Biochemistry 40: 2373-2378). Compared to RGD-4C, RGD-10 contains only 2 cysteine residues, which facilitates synthesis of oxidized peptides using a one-step oxidation reaction. Furthermore, RGD-10 contains two aromatic residues, which allows spectrophotometrical detection at 280 nm. […] Thus, RGD-10 binds with the same affinity to integrin-expressing cells as RGD-4C, however, is much simpler to produce.

[5] = test system: integrin-expressing cells; settings: titration of competition of RGD-10 binding, cell ELISA, Fig. 2
[6] = RGD10-LP3 liposomes (1 mol% lipopeptide), 100 µM competitor, Fig. 5
[7] = RGD10 LP1-containing liposomes (Example 3)

## C[C@H](NC(=O)CN)C(=O)N[C@@H](CCCNC(=N)N)C(=O)N[C@@H](Cc1ccc(O)cc1)C(=O)N[C@H]1CSSC[C@@H](C(=O)N[C@@H](Cc2ccccc2)C(=O)N[C@@H](CC(=O)O)C(=O)NCC(=O)O)NC(=O)[C@H](CC(=O)O)NC(=O)CNC(=O)[C@H](CCCNC(=N)N)NC1=O [RGD-10] (H-GARYCRGDCFDG-OH; disulfide 5-9; N-terminus and C-terminus assumed)
[1]
  binding to HUVEC: Direct binding
[2]
  inhibition of binding of liposomes to B16.F10: completely inhibited
[3]; [6]
  inhibition of binding of liposomes to HUVEC: completely inhibited
[3]; [7]
  inhibition of binding of liposomes to HUVEC: completely inhibited
[4]
  binding strength to HDMEC: comparable strength as RGD-4C
[5]
  pIC50: ~6.70

## C[C@H](N)C(=O)N[C@H]1CSSC[C@@H](C(=O)NCC(=O)O)NC(=O)[C@H](Cc2ccccc2)NC(=O)[C@@H]2CSSC[C@H](NC(=O)[C@H](CC(=O)O)NC1=O)C(=O)N[C@@H](CCCNC(=N)N)C(=O)NCC(=O)N[C@@H](CC(=O)O)C(=O)N2 [RGD-4C, reference compound] (H-ACDCRGDCFCG-OH; disulfide 2-10, 4-8; N-terminus and C-terminus assumed)
[2]
  inhibition of binding of liposomes to B16.F10: completely inhibited
[3]; [6]
  inhibition of binding of liposomes to HUVEC: completely inhibited
[3]; [7]
  inhibition of binding of liposomes to HUVEC: completely inhibited
